Experimental data reported in ChEMBL document CHEMBL1201862, “PubChem BioAssay data set” (2004).
Activity calls are given as the source filed them.

Key:
Cytochrome P450 3A4 = Cytochrome P450 3A4 (Homo sapiens, UniProt P08684); settings: Potency;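 also: confirmatory qHTS run detecting inhibitors and substrates of CYP3A4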
Cytochrome P450 2C9 = Cytochrome P450 2C9 (Homo sapiens, UniProt P11712); settings: Potency
Insulin-degrading enzyme = biological target: T1, Insulin-degrading enzyme (Homo sapiens, UniProt P14735); assay: Dose Response: Fluorescence polarization-based cell-based high throughput dose response assay for inhibitors of insulin-degrading enzyme (IDE). [Related pubchem assays: 434962 (Primary screen (IDE inhibitors in singlicate)), 449730 (Counterscreen (Cytotoxicity in triplicate)), 435028 (Confirmation (IDE inhibitors in triplicate)), 434984 (Summary …; type: functional
T1 sequence (P14735 whole entry): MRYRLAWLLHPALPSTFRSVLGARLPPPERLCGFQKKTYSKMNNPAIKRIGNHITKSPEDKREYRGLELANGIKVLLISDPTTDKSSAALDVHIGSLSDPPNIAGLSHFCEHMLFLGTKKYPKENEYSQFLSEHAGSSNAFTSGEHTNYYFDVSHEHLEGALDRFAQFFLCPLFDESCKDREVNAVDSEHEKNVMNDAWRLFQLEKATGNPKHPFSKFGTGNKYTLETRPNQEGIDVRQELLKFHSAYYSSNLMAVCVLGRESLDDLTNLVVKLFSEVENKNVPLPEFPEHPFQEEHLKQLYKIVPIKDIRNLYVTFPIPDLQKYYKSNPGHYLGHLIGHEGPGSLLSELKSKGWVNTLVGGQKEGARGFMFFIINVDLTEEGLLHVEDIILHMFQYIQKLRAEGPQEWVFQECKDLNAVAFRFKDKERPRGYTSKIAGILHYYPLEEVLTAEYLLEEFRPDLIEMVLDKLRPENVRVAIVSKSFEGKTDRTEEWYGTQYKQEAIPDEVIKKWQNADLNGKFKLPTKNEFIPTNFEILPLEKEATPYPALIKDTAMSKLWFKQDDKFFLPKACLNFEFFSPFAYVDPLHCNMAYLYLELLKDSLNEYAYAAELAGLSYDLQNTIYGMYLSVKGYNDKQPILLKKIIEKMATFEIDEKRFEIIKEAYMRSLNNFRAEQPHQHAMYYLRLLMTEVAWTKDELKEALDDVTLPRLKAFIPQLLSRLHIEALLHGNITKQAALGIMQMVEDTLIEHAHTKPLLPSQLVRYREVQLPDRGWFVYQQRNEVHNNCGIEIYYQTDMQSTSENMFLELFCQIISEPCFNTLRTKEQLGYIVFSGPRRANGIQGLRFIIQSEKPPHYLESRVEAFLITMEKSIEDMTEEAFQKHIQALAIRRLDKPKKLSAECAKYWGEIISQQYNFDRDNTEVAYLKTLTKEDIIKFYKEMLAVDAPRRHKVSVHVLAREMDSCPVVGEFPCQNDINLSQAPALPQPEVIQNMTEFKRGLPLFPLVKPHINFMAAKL

[1] = Counterscreen for IDE inhibitors: Luminescence-based cell-based high throughput dose response assay to identify compounds that are cytotoxic to HEK cells. [Related pubchem assays: 434962 (Primary screen (IDE inhibitors in singlicate)), 449730 (Counterscreen (Cytotoxicity in triplicate)), 435028 (Confirmation (IDE inhibitors in triplicate)) …; type: functional; settings: HEK293
[2] = HeLa cell cytotoxicity, dose response, cytotoxicity control for MgcRacGAP inhibitor project (AID 624300); type: functional
[3] = biological target: T2, Rac GTPase-activating protein 1 (Homo sapiens, UniProt Q9H0H5); assay: MgcRacGAP GTPase-activating activity inhibitors, confirmation, biochemical, ADP Hunter fluorescence, primary and confirmatory (AID 624330); type: functional
T2 sequence (Q9H0H5 whole entry): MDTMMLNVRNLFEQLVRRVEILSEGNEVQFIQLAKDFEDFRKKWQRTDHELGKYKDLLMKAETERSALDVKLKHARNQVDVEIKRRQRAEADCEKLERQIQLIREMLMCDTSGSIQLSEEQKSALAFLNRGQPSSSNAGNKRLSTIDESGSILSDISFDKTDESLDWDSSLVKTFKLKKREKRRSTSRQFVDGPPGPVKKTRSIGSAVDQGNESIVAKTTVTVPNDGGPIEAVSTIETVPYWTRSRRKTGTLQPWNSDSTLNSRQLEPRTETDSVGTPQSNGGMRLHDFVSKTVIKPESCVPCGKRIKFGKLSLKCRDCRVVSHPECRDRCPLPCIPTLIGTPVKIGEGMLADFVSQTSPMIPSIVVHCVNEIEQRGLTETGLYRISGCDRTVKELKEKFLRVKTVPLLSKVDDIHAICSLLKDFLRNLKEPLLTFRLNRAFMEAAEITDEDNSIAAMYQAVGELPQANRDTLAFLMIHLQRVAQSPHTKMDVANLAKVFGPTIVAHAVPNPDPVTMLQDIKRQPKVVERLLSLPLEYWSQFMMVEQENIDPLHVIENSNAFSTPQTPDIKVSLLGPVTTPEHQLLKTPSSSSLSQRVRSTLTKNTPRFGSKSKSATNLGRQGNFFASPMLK

Cytochrome P450 2C9, sequence (P11712 whole entry): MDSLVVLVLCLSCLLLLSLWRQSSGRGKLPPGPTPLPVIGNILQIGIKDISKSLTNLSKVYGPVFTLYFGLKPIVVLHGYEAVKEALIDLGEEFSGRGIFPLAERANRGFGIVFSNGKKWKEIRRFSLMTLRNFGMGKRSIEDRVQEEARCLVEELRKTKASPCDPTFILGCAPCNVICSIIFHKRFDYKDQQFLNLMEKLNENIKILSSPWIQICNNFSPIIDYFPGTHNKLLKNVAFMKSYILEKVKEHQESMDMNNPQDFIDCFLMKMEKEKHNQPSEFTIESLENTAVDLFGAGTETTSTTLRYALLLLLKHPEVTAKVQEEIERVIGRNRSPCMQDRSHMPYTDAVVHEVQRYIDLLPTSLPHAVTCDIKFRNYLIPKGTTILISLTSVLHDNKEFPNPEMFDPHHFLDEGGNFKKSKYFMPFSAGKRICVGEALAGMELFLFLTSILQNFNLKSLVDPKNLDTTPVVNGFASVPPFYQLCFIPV
Cytochrome P450 3A4, sequence (P08684 whole entry): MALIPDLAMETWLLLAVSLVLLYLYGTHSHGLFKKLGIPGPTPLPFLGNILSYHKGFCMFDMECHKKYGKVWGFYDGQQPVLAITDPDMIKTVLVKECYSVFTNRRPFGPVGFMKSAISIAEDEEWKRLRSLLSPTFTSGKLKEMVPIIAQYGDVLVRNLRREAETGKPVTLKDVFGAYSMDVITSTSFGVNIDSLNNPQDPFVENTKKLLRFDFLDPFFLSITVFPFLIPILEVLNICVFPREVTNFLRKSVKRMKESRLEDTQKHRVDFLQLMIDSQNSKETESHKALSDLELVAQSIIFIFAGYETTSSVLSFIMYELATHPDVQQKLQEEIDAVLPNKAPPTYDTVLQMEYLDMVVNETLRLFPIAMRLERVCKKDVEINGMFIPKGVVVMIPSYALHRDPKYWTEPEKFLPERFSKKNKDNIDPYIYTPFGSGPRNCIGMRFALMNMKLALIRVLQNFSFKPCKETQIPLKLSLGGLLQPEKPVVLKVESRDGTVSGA

Row | Compound | AC50 (Cytochrome P450 3A4) | AC50 (Cytochrome P450 2C9) | IC50 (Insulin-degrading enzyme) | IC50 [1] | CC50 [2] | IC50 [3]
1 | N[C@@H](Cc1cc(O)c(O)cc1O)C(=O)O | 15.8 µM (inconclusive) | 39.8 µM (inconclusive) | – | – | – | –
2 | Cc1ccc(NC(=O)CSc2nnc(CN3CCOCC3)n2C)cc1C | – | – | > 55.9 µM (not active) | > 55.7 µM (not active) | – | –
3 | COc1ccc(NC2=NC(=O)/C(=C/c3ccc(O)c(OC)c3)S2)cc1 | – | – | > 6.22 µM (active) | 38.1 µM (not active) | 95.4 µM (active) | 17.9 µM (active)
